Data as given in ChEMBL document CHEMBL1139107, “Design, synthesis, and biological evaluation of novel analogues of archazolid: a highly potent simplified V-ATPase inhibitor” (Bioorg Med Chem Lett, 2007).

Tests used:
L929 = test: Growth inhibition of mouse L929 cells by MTT assay; type: functional, cell-based
[1] = Inhibition of tobacco hornworm midgut vacuolar ATPase V1/V0 holoenzyme; set-up: species or system Manduca sexta

## CNC(=O)O[C@@H](CC(C)C)c1nc([C@H]2OC(=O)/C(C)=C/C/C(C)=C/[C@@H](O[Si](C)(C)C(C)(C)C)[C@@H](C)\C=C(C)/C=C(C)\C=C\[C@@H](O)[C@H](C)[C@H](OC)/C(C)=C/C=C/[C@@H]2C)cs1
L929
  IC50: 940 nM

## CNC(=O)O[C@@H](CC(C)C)c1nc([C@H]2OC(=O)/C(C)=C/C/C(C)=C/[C@@H](OC(=O)c3ccc([N+](=O)[O-])cc3)[C@@H](C)\C=C(C)/C=C(C)\C=C\[C@@H](O)[C@H](C)[C@H](OC)/C(C)=C/C=C/[C@@H]2C)cs1
L929
  IC50: 290 nM

## CO[C@@H]1/C(C)=C/C=C/[C@H](C)[C@@H](c2csc([C@@H](O)CC(C)C)n2)OC(=O)/C(C)=C/C/C(C)=C/[C@@H](O)[C@@H](C)\C=C(C)/C=C(C)\C=C\[C@@H](O)[C@@H]1C
L929
  IC50: 14 nM

## CNC(=O)O[C@@H](CC(C)C)c1nc([C@H]2OC(=O)/C(C)=C/C/C(C)=C/[C@@H](O)[C@@H](C)\C=C(C)/C=C(C)\C=C\[C@@H](O)[C@H](C)[C@H](OC)/C(C)=C/C=C/[C@@H]2C)cs1 [ARCHAZOLID A]
[1]
  IC50: 0.6 nmol
L929
  IC50: 0.81 nM

## CNC(=O)O[C@@H](CC(C)C)c1nc([C@H]2OC(=O)/C=C/C/C(C)=C/[C@@H](O)[C@@H](C)\C=C(C)/C=C(C)\C=C\[C@@H](O)[C@H](C)[C@H](OC)/C(C)=C/C=C/[C@@H]2C)cs1 [ARCHAZOLID B]
L929
  IC50: 1.1 nM

## CNC(=O)O[C@@H](CC(C)C)c1nc([C@H]2OC(=O)/C(C)=C/C/C(C)=C/[C@@H](O)[C@@H](C)\C=C(C)/C=C(C)\C=C\C(=O)[C@H](C)[C@H](OC)/C(C)=C/C=C/[C@@H]2C)cs1 [DEHYDROARCHAZOLID]
L929
  IC50: > 5000 nM
